Measured values published in paper PMC9293909 (Nature Communications, 2022).
Where “and” joins values, the source holds several entries; their conditions need not be identical. Identical values can stand only once. Like-named read-outs stand apart in the source and are kept apart here.

Tests used:
respiration (f, VT, VE) = experiment: Urethane-anaesthetised rat, respiration
Protocol: The femoral vein was catheterised for drug delivery.
Adult male Sprague–Dawley rats (400-500 g) were anaesthetised with urethane and instrumented as described above, with the exception that the arterial cannulation was not performed.
Changes in f, VT, and VE were measured. If the dosing occurred close to a respiratory event such as a sigh a second IV dose was administered, with 20 min recovery periods either side of the injection.

frog heart = experiment: Isolated frog heart preparation, heart rate; settings: CPA 300 nM
Protocol: Young adult male Xenopus leavis frogs were obtained from Portsmouth Xenopus Resource Centre. […] The animals were dissected to reveal the heart and the pericardium was carefully removed. Heart contractions were measured with a force transducer (AD instruments). Heart rate was acquired via a PowerLab 26 T (AD instruments) controlled by LabChart 7 (AD instruments). The heart was regularly washed with Ringer solution and drugs were applied directly to the heart.

rA3R = target: T1, rA3R (Rattus norvegicus, UniProt P28647); experiment: NanoBRET competition binding with AV039; settings: displacement of AV039; read-out: pKi rA3R (converted)
T1 construct: expressed in transfected cells; host or cells: Flp-In-CHO (ThermoFisher R75807), pcDNA5/FRT
T1 sequence (P28647 1-320): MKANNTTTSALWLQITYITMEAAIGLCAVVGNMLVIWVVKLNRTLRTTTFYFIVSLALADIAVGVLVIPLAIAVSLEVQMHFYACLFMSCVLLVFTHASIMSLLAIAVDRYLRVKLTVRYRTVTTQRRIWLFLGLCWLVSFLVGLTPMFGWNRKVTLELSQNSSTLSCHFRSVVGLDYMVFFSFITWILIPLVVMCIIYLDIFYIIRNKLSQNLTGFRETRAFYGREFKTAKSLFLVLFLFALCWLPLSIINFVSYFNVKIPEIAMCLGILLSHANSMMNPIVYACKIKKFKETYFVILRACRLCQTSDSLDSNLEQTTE
Protocol: Here data was fitted with the ‘two-site Ki model’, build into Prism to determine high affinity and low affinity values for the unlabelled agonists. […] BRET was measured following the addition of the Nluc substrate, Furimazine (0.1 μM).

hA1R:Goa = target: T2, hA1R:Goa (Homo sapiens, UniProt P30542); experiment: TRUPATH G protein dissociation BRET assay, Goa; assay type: cell-based; settings: Fig2h
T2 construct: cDNA resource centre (pcDNA3.1-A1R)
Protocol: Cells were plated in a density of 1,500,000 cells/well in a 6-well plate and grown in DMEM /F-12 GlutaMAX™ media (Thermo Fisher Scientific, UK) supplemented with 10% FBS (Sigma, UK) and 1% AA (Sigma, UK). After being grown overnight, cells in each well were transfected using polyethylenimine 25 kDa (PEI, Polysciences Inc., Germany) at a 6:1 ratio of PEI to DNA, diluted in 150 mM NaCl. […] Gɑ (either Goa-RLuc8, or Gob-RLuc8), Gβ3 and Gγ8-GFP2 constructs were purchased as part of the TRUPATH sensor kit from Addgene, pcDNA3.1-A1R was obtained from cDNA resource centre, and pcDNA3.1 (-) zeo was purchased from Invitrogen. After 24 h, cells were trypsinised and re-seeded onto poly-L-lysine (PLL)-coated white 96-well plates (Greiner, UK) at the density of 50,000 cells/well in a complete DMEM/F-12 medium. After grown overnight, the culture media was discarded and replaced with 80 μl assay buffer (1× Hank’s balanced salt solution (HBSS) with calcium, supplemented with 20 mM HEPES and 0.1% BSA at pH 7.4). The assay was started by adding 10 μl of coelenterazine 400a (Nanolight technology, USA) to a final concentration of 5 μM. The plates were then incubated in the dark for 5 min, prior to the addition of 10 μl compounds (in a range of 0.01 nM – 1 µM). […] BRET signal was recorded for 30 min on a Mithras LB940 plate reader allowing sequential integration of signal detected from GFP2 and Rluc8.

WT hA1R = target: T3, WT hA1R (Homo sapiens, UniProt P30542); experiment: cAMP inhibition, Flp-In-CHO wild-type hA1R; assay type: cell-based; settings: Fig4j
T3 construct: expressed in transfected cells
From the text: Cell lines were maintained using standard subculturing routines as guided by the European Collection of Cell Culture (ECACC) and checked annually for mycoplasma infection using an EZ-PCR mycoplasma test kit from Biological Industries (Kibbutz Beit-Haemek, Israel). To investigate the signalling properties of the rat A3R (rA3R) and mutants of the human A1R (hA1R), stable cell lines were generated using Flp-In-CHO cells (ThermoFisher - R75807). Untagged hA1R from sigNanoLuciferase (Nluc)-A1R in pcDNA3.1+ and untagged rA3R from sigNluc-A3R in pcDNA3.1 + (both gifted by Dr Steve Briddon (University of Nottingham)) were cloned into the pcDNA5/FRT expression vector (Thermo Fisher Scientific). Mutations within the hA1R were made using the QuikChange Lightening Site-Directed Mutagenesis Kit (Agilent Technologies) in accordance with the manufacturer’s instructions. Constructs for generating Goa/b interfering and scrambled peptides were generated by PCR and cloned into the BamHI/HindIII site of pcDNA3.1- as described in Gilchrist et al.[60],. Prior to the initiator codon a Kozak sequence was included for enhanced translation. The peptide sequences used were: for Goa […], for Gob […], and for the scrambled peptide […] was used. Constructs were sequenced to confirm fidelity. […]

[1] = Fig6g, average, n 4, CPA alone or CPA + BnOCPA
[2] = Fig6g, individual animal, CPA alone or CPA + BnOCPA

T2 sequence (P30542 whole entry): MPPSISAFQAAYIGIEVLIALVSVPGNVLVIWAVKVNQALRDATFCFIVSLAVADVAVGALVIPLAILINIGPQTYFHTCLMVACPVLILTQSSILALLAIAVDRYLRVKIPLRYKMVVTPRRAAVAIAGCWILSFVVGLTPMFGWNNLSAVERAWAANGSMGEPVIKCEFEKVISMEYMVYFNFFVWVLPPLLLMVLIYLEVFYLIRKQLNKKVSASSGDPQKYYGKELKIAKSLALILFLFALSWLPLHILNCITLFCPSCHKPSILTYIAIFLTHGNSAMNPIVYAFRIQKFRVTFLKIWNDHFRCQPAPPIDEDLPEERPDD
T2 sequence (P09471 2-354 partner limits assumed): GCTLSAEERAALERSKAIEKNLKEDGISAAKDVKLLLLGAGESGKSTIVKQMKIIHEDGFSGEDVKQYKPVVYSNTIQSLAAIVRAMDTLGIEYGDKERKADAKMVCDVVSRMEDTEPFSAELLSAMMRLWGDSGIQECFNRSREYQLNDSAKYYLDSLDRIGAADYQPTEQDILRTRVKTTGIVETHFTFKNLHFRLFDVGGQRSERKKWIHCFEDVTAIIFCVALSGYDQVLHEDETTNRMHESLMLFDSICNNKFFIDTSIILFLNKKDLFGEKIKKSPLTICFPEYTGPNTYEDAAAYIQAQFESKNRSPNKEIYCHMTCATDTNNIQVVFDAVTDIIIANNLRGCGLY
T2 sequence (P16520 whole entry partner): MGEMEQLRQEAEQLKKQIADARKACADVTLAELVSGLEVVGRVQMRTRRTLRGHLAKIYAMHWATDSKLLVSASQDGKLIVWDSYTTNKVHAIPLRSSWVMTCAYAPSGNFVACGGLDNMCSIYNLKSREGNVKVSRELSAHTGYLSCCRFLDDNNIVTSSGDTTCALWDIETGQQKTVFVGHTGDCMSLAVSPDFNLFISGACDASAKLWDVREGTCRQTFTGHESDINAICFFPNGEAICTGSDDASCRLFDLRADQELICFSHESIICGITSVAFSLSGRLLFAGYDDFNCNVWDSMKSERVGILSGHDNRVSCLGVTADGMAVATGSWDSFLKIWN
T2 sequence (Q9UK08 1-67 partner limits assumed): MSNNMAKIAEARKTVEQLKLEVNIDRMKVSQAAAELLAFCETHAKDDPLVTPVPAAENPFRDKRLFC
T3 sequence (P30542 whole entry): as the sequence (P30542 whole entry) above

## OC[C@H]1O[C@@H](n2cnc3c(NC4CCCC4)ncnc32)[C@H](O)[C@@H]1O [CPA, N^6-Cyclopentyladenosine]
Respiration (f, VT, VE); CPA 6 µg kg^−1 IV, resting 1.1 ± 0.1
  tidal volume VT after injection: 0.8 ± 0.1 mL
Respiration (f, VT, VE); CPA 6 µg kg^−1 IV, resting 143 ± 11
  respiratory frequency f after injection: 108 ± 10 BrPM
Respiration (f, VT, VE); CPA 6 µg kg^−1 IV, resting 155 ± 28
  minute ventilation VE after injection: 99 ± 19 mL/min
Respiration (f, VT, VE); CPA 6 µg kg^−1 alone
  effect on Freq (difference from previous baseline): 52 ± 8 breaths/min
  effect on VE (difference from previous baseline): 59 ± 9 mL/min
Respiration (f, VT, VE); Fig6b, individual rat
  Frequency (respiration): 97.7 and 153.2 and 77.8 and 92.8 and 134.8 and 131.4 and 100.3 and 76.5
Respiration (f, VT, VE); Fig6b, n 8
  Frequency (respiration), Average: 108.1
Respiration (f, VT, VE); Fig6c, individual rat
  VT: 1 and 1.31 and 0.72 and 0.49 and 0.42 and 0.81 and 1.39
Respiration (f, VT, VE); Fig6c, n 8
  VT, Average: 0.82
Respiration (f, VT, VE); [1]
  Freq, Average: -52
  VE, Average: -59
  VT, Average: -0.065
Respiration (f, VT, VE); [2]
  Freq: -58 and -41 and -36 and -72
  VE: -86 and -53 and -48 and -49
  VT: -0.31 and 0.1 and -0.15
Respiration (f, VT, VE); Fig6d, individual rat
  VE: 110 and 203 and 69 and 42 and 63 and 139 and 46 and 116
Respiration (f, VT, VE); Fig6d, n 8
  VE, Average: 99
Frog heart
  reduction of heart rate: 6.1 ± 0.1 BPM

## OC[C@H]1O[C@@H](n2cnc3c(N[C@@H]4CCC[C@H]4O)ncnc32)[C@H](O)[C@@H]1O [HOCPA, (2 R,3 R,4 S,5 R)−2-(6-{[(1 R,2 R)−2-hydroxycyclopentyl]amino}−9H-purin-9-yl)−5-(hydroxymethyl)oxolane-3,4-diol]
rA3R
  Ki: 676 nM
hA1R:Goa; individual replicate, read-out: TRUPATH Goa potency (converted)
  EC50: 64.6 nM and 83.2 nM and 81.3 nM and 37.2 nM and 27.5 nM and 44.7 nM and 30.2 nM
hA1R:Goa; n 8, read-out: TRUPATH Goa potency, Average (converted)
  EC50: 45.7 nM
WT hA1R; individual replicate, read-out: cAMP inhibition potency, WT (converted)
  IC50: 0.971 nM and 1.09 nM and 1.91 nM and 1.17 nM
WT hA1R; read-out: cAMP inhibition potency, WT, Average (converted)
  IC50: 1.23 nM
